Measurements: the supplement of paper PMC4932681

Tests used:
ZR-75-1 Tam1 [1] = experiment: drug sensitivity score (DSS) (DSS (dimensionless)); higher = more sensitive; extreme values may be limits of the assay; settings: 4-OH-tamoxifen in medium 1 µM; 72 h
Procedure, shortened: (§1)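 Breast cancer cell lines and their resistant derivatives were seeded into 384-well plates containing library drugs at five concentrations across a 10 000-fold range, with resistant lines kept in medium with 1 μM of the selecting drug. After 72 h at 37 °C, CellTiter-Glo viability was read on a PHERAstar and normalised to vehicle-only and positive controls. Logistic dose–response fits in the Breeze pipeline gave drug sensitivity score, relative IC50 (curve midpoint) and top-dose inhibition.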

BT-474 Tam2 [2] = experiment: as above; settings: 4-OH-tamoxifen in medium 1 µM; 72 h
Procedure, shortened: as §1

T-47D Tam2 [3] = experiment: as above; settings: 4-OH-tamoxifen in medium 1 µM; 72 h
Procedure, shortened: as §1

ZR-75-1 [4] = experiment: as above; settings: 72 h
Procedure, shortened: as §1

T-47D [5] = experiment: as above; settings: 72 h
Procedure, shortened: as §1

BT-474 [6] = experiment: as above; settings: 72 h
Procedure, shortened: as §1

MCF-7 [7] = experiment: as above; settings: 72 h
Procedure, shortened: as §1

MCF-7 Tam1 [8] = experiment: as above; settings: 4-OH-tamoxifen in medium 1 µM; 72 h
Procedure, shortened: as §1

BT-474 Tam1 [9] = experiment: as above; settings: 4-OH-tamoxifen in medium 1 µM; 72 h
Procedure, shortened: as §1

T-47D Tam1 [10] = experiment: as above; settings: 4-OH-tamoxifen in medium 1 µM; 72 h
Procedure, shortened: as §1

ZR-75-1 Tam2 [11] = experiment: as above; settings: 4-OH-tamoxifen in medium 1 µM; 72 h
Procedure, shortened: as §1

ZR-75-1 Tam1 [12] = experiment: relative IC50 (midpoint of fitted logistic curve, plateau may be below 50% inhibition; CellTiter-Glo viability); higher = less potent; settings: 4-OH-tamoxifen in medium 1 µM; 72 h
Procedure, shortened: as §1

BT-474 Tam2 [13] = experiment: as above; settings: 4-OH-tamoxifen in medium 1 µM; 72 h
Procedure, shortened: as §1

T-47D Tam2 [14] = experiment: as above; settings: 4-OH-tamoxifen in medium 1 µM; 72 h
Procedure, shortened: as §1

ZR-75-1 [15] = experiment: as above; settings: 72 h
Procedure, shortened: as §1

T-47D [16] = experiment: as above; settings: 72 h
Procedure, shortened: as §1

BT-474 [17] = experiment: as above; settings: 72 h
Procedure, shortened: as §1

MCF-7 [18] = experiment: as above; settings: 72 h
Procedure, shortened: as §1

MCF-7 Tam1 [19] = experiment: as above; settings: 4-OH-tamoxifen in medium 1 µM; 72 h
Procedure, shortened: as §1

BT-474 Tam1 [20] = experiment: as above; settings: 4-OH-tamoxifen in medium 1 µM; 72 h
Procedure, shortened: as §1

T-47D Tam1 [21] = experiment: as above; settings: 4-OH-tamoxifen in medium 1 µM; 72 h
Procedure, shortened: as §1

ZR-75-1 Tam2 [22] = experiment: as above; settings: 4-OH-tamoxifen in medium 1 µM; 72 h
Procedure, shortened: as §1

Compound | drug sensitivity score (ZR-75-1 Tam1 [1]) | drug sensitivity score (BT-474 Tam2 [2]) | drug sensitivity score (T-47D Tam2 [3]) | drug sensitivity score (ZR-75-1 [4]; 4-OH-tamoxifen in medium 0 µM) | drug sensitivity score (ZR-75-1 [4]; 4-OH-tamoxifen in medium 1 µM) | drug sensitivity score (T-47D [5]; 4-OH-tamoxifen in medium 0 µM) | drug sensitivity score (T-47D [5]; 4-OH-tamoxifen in medium 1 µM) | drug sensitivity score (BT-474 [6]; 4-OH-tamoxifen in medium 0 µM) | drug sensitivity score (BT-474 [6]; 4-OH-tamoxifen in medium 1 µM) | drug sensitivity score (MCF-7 [7]; 4-OH-tamoxifen in medium 0 µM) | drug sensitivity score (MCF-7 [7]; 4-OH-tamoxifen in medium 1 µM) | drug sensitivity score (MCF-7 Tam1 [8]) | drug sensitivity score (BT-474 Tam1 [9]) | drug sensitivity score (T-47D Tam1 [10]) | drug sensitivity score (ZR-75-1 Tam2 [11]) | relative IC50 (ZR-75-1 Tam1 [12]) [nM] | relative IC50 (BT-474 Tam2 [13]) [nM] | relative IC50 (T-47D Tam2 [14]) [nM] | relative IC50 (ZR-75-1 [15]; 4-OH-tamoxifen in medium 0 µM) [nM] | relative IC50 (ZR-75-1 [15]; 4-OH-tamoxifen in medium 1 µM) [nM] | relative IC50 (T-47D [16]; 4-OH-tamoxifen in medium 0 µM) [nM] | relative IC50 (T-47D [16]; 4-OH-tamoxifen in medium 1 µM) [nM] | relative IC50 (BT-474 [17]; 4-OH-tamoxifen in medium 0 µM) [nM] | relative IC50 (BT-474 [17]; 4-OH-tamoxifen in medium 1 µM) [nM] | relative IC50 (MCF-7 [18]; 4-OH-tamoxifen in medium 0 µM) [nM] | relative IC50 (MCF-7 [18]; 4-OH-tamoxifen in medium 1 µM) [nM] | relative IC50 (MCF-7 Tam1 [19]) [nM] | relative IC50 (BT-474 Tam1 [20]) [nM] | relative IC50 (T-47D Tam1 [21]) [nM] | relative IC50 (ZR-75-1 Tam2 [22]) [nM]
NCCCNCCSP(=O)(O)O [Amifostine] | 0 | 0 | 0 | 0 | 0 | 0 | 0 | 0 | 0 | 0 | 0 | 0 | 0 | 0 | 0 | > 10000 | > 10000 | > 10000 | > 10000 | > 10000 | > 10000 | > 10000 | > 10000 | > 10000 | > 10000 | > 10000 | > 10000 | > 10000 | > 10000 | > 10000
CS(=O)(=O)N1CCN(Cc2cc3nc(-c4cccc5[nH]ncc45)nc(N4CCOCC4)c3s2)CC1 [Pictilisib (GDC-0941)] | 11.3 | 17.2 | 9.95 | 12.7 | 9.23 | 9.41 | 9.59 | 10.2 | 16.4 | 15.4 | 12.8 | 8.69 | 17.4 | 14.7 | 12.1 | 514 | 182 | 472 | 208 | 453 | 713 | 884 | 359 | 283 | 201 | 419 | 582 | 202 | 148 | 415
Cn1cc(C2=C(c3cn(C4CCN(Cc5ccccn5)CC4)c4ccccc34)C(=O)NC2=O)c2ccccc21 [Enzastaurin] | 0 | 0 | 0 | 0 | 0 | 0 | 0 | 0 | 0 | 0 | 0 | 0 | 0 | 0 | 0 | > 10000 | > 10000 | > 10000 | > 10000 | > 10000 | > 10000 | > 10000 | > 10000 | > 10000 | > 10000 | > 10000 | > 10000 | > 10000 | > 10000 | > 10000
COC1=C2C[C@@H](C)C[C@H](OC)[C@H](O)[C@@H](C)/C=C(\C)[C@H](OC(N)=O)[C@@H](OC)/C=C\C=C(/C)C(=O)NC(=CC1=O)C2=O [Geldanamycin] | 7.66 | 12.9 | 6.85 | 6.31 | 9.2 | 4.34 | 3.67 | 9.69 | 10.8 | 5.35 | 9.55 | 4.81 | 8.85 | 14.8 | 6.52 | 1120 | 494 | 1340 | 1340 | 1070 | 2950 | 3590 | 563 | 518 | 2790 | 943 | 1910 | 1250 | 235 | 1440
CO[C@H]1/C=C\C=C(/C)C(=O)NC2=CC(=O)C(NCCN(C)C)=C(C[C@@H](C)C[C@H](OC)[C@H](O)[C@@H](C)/C=C(\C)[C@@H]1OC(N)=O)C2=O [Alvespimycin (17-DMAG)] | 3.49 | 17.6 | 3.87 | 3.36 | 6.21 | 3.17 | 3.41 | 12.2 | 19.4 | 12.6 | 8.71 | 4.36 | 16.9 | 1.14 | 5.93 | 95 | 14.6 | 196 | 85.8 | 75.2 | 259 | 142 | 13.1 | 8.88 | 22.5 | 30 | 48 | 15.3 | 424 | 71
CC(C)C[C@H](NC(=O)[C@H](Cc1ccccc1)NC(=O)c1cnccn1)B(O)O [Bortezomib] | 13.9 | 26.7 | 26.5 | 9.65 | 10.7 | 25.6 | 23.7 | 13.2 | 29.1 | 19.9 | 14 | 11.3 | 29.5 | 30.4 | 16.4 | 20.1 | 5.98 | 5.5 | 73.1 | 31.4 | 6.27 | 8.31 | 12.7 | 3.72 | 6.82 | 44.5 | 39.9 | 3.55 | 2.79 | 8.96
O=C1CN2Cc3c(ccc(Cl)c3Cl)N=C2N1 [Anagrelide] | 0 | 0 | 0 | 0 | 0 | 0 | 0 | 0 | 0 | 0 | 0 | 0 | 0 | 0 | 0 | > 10000 | > 10000 | > 10000 | > 10000 | > 10000 | > 10000 | > 10000 | > 10000 | > 10000 | > 10000 | > 10000 | > 10000 | > 10000 | > 10000 | > 10000
CN(C)c1nc(N(C)C)nc(N(C)C)n1 [Altretamine] | 0 | 0 | 0 | 0 | 0 | 0 | 0.283 | 0 | 0 | 0 | 0.0496 | 0 | 0 | 2.61 | 0 | > 10000 | > 10000 | > 10000 | > 10000 | > 10000 | > 10000 |  | > 10000 | > 10000 | > 10000 |  | > 10000 | > 10000 | 3370 | > 10000
COc1c2occc2cc2ccc(=O)oc12 [Methoxsalen] | 0 | 0 | 0 | 0 | 0 | 0 | 0 | 0 | 0 | 0 | 0 | 0 | 0 | 0 | 0 | > 10000 | > 10000 | > 10000 | > 10000 | > 10000 | > 10000 | > 10000 | > 10000 | > 10000 | > 10000 | > 10000 | > 10000 | > 10000 | > 10000 | > 10000
CC(=O)[C@]1(O)Cc2c(O)c3c(c(O)c2[C@@H](O[C@H]2C[C@H](N)[C@H](O)[C@H](C)O2)C1)C(=O)c1ccccc1C3=O [Idarubicin] | 5.45 | 3.03 | 2.4 | 6.29 | 5.81 | 8.26 | 3.11 | 4.38 | 4.91 | 6.65 | 5.56 | 1.86 | 3.94 | 8.94 | 7.63 | 127 | 371 | 313 | 120 | 111 | 97.4 | 329 | 309 | 349 | 191 | 187 | 331 | 394 | 123 | 86
CN1CC[C@H](c2c(O)cc(O)c3c(=O)cc(-c4ccccc4Cl)oc23)[C@H](O)C1 [Alvocidib (Flavopiridol)] | 7.64 | 16.9 | 7.73 | 10.4 | 9.96 | 7.14 | 0 | 1.69 | 14.1 | 13.6 | 9.86 | 4.64 | 19.8 | 16.8 | 10.1 | 477 | 363 | 184 | 251 | 246 | 408 | > 10000 |  | 388 | 187 | 515 | 316 | 217 | 174 | 355
C[C@]12C=CC(=O)C=C1CC[C@@H]1[C@@H]2C(=O)C[C@@]2(C)[C@H]1CC[C@]2(O)C(=O)CO [Prednisone] | 0 | 0 | 0 | 0 | 0 | 0 | 0 | 0 | 0 | 0 | 0 | 0 | 0 | 0 | 0 | > 10000 | > 10000 | > 10000 | > 10000 | > 10000 | > 10000 | > 10000 | > 10000 | > 10000 | > 10000 | > 10000 | > 10000 | > 10000 | > 10000 | > 10000
